What all share (assay): NCI tumour cell line growth inhibition, 48 h
The test system of assay [1] is SF-539 CNS.
Assay [2] deals with SNB-75 CNS.
Assay [3] relates to SK-MEL-28 melanoma.
For assay [4], the system named is A549 NSCLC.
Assay [5] concerns MDA-MB-231 breast.
Assay [6] has as its system UACC-257 melanoma.
The test system of assay [7] is NCI-H460 lung.
Assay [8] deals with LOX IMVI melanoma.

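1) Cells in 96-well plates. 2) Compound, 48 h, 5 concentrations. 3) Linear interpolation between surrounding doses. 4) Unreached endpoint = highest concentration. GI50 is the concentration that inhibits growth by half. TGI denotes the concentration required for complete inhibition of growth.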

For the compound `C[C@]12CC[C@@H]3c4ccc(O)cc4CC[C@H]3[C@@H]1CC[C@@H]2NS(=O)(=O)c1ccc2ccccc2c1`, the GI50 is 2.11 µM in assay [1]; 2.1 µM in assay [2]; 2.31 µM in assay [3]; 3.24 µM in assay [4]; 1.81 µM in assay [5]; 3.3 µM in assay [6]. For the same compound, in assay [7], the GI50 is 2.21 µM. In addition, the TGI in assay [1] was determined as 6.1 µM; in assay [2] it was 12.6 µM; in assay [3], 5.92 µM; in assay [4], 13.2 µM; in assay [5], 4.68 µM; in assay [6], 17.6 µM. Further, in assay [7], the TGI came out at 4.97 µM.
On to `COc1ccc(C#CC2=C(c3cc(OC)c(OC)c(OC)c3)C(=O)OC2)cc1`, for which the GI50 is 1.29 µM in assay [1]; 1.33 µM in assay [2]; 9.28 µM in assay [3]; 14.3 µM in assay [4]; 32 µM in assay [5]; 13 µM in assay [6]. Moreover, in assay [7], the GI50 was 6.65 µM. The TGI is 3.26 µM in assay [1]; greater than 50 µM in assay [2]; greater than 50 µM in assay [3]; 38.8 µM in assay [4]; greater than 50 µM in assay [5]; greater than 50 µM in assay [6]. For the same compound, the TGI in assay [7] was greater than 50 µM.
As to `O=S(=O)(NCCO)c1cc[c]([Sb](=[O])([OH])[OH])cc1`, the GI50 in assay [8], in assay [3], in assay [4], in assay [5], in assay [6] and in assay [7] was greater than 100 µM each time. Also, the TGI in assay [8], in assay [3], in assay [4], in assay [5], in assay [6] and in assay [7] was greater than 100 µM in each case.
As to `CC(=O)NC1=C(Sc2ccc(Cl)cc2)C(=O)c2ccccc2C1=O`, the TGI was 5.85 µM in assay [1]; 14 µM in assay [8]; 11.9 µM in assay [3]; greater than 100 µM in assay [4]; 10.2 µM in assay [5]; 17.3 µM in assay [6]. In assay [7], this compound displayed a TGI of 23.2 µM.
On to `C#CC(=O)OCC#CCOC(=O)C#C`, for which the TGI is 28.8 µM in assay [1]; 2.63 µM in assay [8]; greater than 100 µM in assay [4]; 75.6 µM in assay [5]; greater than 100 µM in assay [6]; greater than 100 µM in assay [7].
Take `CC/C=C\C[C@H](O)C/C=C1/C(=O)C=C[C@@H]1C/C=C\CCCC(=O)NC`: the GI50 in assay [2] is 10.8 µM; in assay [8], 0.317 µM; in assay [3], 1.69 µM; in assay [4] it was 2.55 µM; in assay [5], 4.24 µM; in assay [6], 2.08 µM. The GI50 in assay [7] was 1.63 µM. Further, the TGI in assay [2] is 22.7 µM; in assay [8], 1.43 µM; in assay [3], 3.6 µM; in assay [4] it was 6.81 µM; in assay [5], 14.1 µM; in assay [6] it was 5.32 µM. For the same compound, the TGI in assay [7] came out at 4.15 µM.
For `Cc1cn2c(/C=N/N=C(N)N)c(-c3ccsc3)nc2s1`, the GI50 is 1.6 µM in assay [8]; 17.1 µM in assay [4]; 3.94 µM in assay [5]; 18.7 µM in assay [6]; 5.29 µM in assay [7]. Further, the TGI in assay [8] is 3.35 µM; in assay [4], 34.7 µM; in assay [5], 17.1 µM; in assay [6] it was 35 µM; in assay [7], greater than 100 µM.
As for `Nc1nc(-c2cc(-c3cccc4ccccc34)nc(N)n2)cc(-c2cccc3ccccc23)n1`, the TGI in assay [1], in assay [8], in assay [3], in assay [4], in assay [5] and in assay [6] was greater than 100 µM in each case. This compound also registered a TGI in assay [7] greater than 100 µM.
For `Cn1c(C(C)(C)OC(=O)Oc2ccccc2)cnc1[N+](=O)[O-]`, the TGI in assay [1], in assay [2], in assay [3], in assay [4], in assay [5] and in assay [6] was greater than 100 µM each time. The compound further registered a TGI in assay [7] greater than 100 µM.
`COc1ccc(/C(=N/O)c2cc(OC)c(OC)c(OC)c2)c(OC)c1N`: the GI50 is 2.98 µM in assay [1]; 2.21 µM in assay [2]; 7.28 µM in assay [8]; greater than 100 µM in assay [3]; 8.21 µM in assay [4]; 5.36 µM in assay [5]. The GI50 in assay [7] was 3.92 µM. The TGI in assay [1], in assay [2], in assay [8], in assay [3], in assay [4] and in assay [5] was greater than 100 µM throughout. This compound also gave a TGI in assay [7] greater than 100 µM.
Take `COc1cc(NC(C)CCCN)c2ncccc2c1Sc1ccc(Cl)cc1` (stereo unspecified): the GI50 in assay [2] is 1.7 µM; in assay [3] it was 1.83 µM; in assay [4], 1.65 µM; in assay [5], 1.42 µM; in assay [6] it was 1.63 µM; in assay [7], 1.8 µM. Moreover, the TGI in assay [2] worked out at 3.42 µM; in assay [3], 3.28 µM; in assay [4], 3.01 µM; in assay [5], 2.86 µM; in assay [6], 3.15 µM; in assay [7], 3.22 µM.
Regarding `CSc1nc(N)c2c(n1)NC(c1ccccc1)C1CCc3ccccc3C1=N2` (stereo unspecified), the GI50 was greater than 100 µM in assay [1]; greater than 100 µM in assay [2]; 7.16 µM in assay [8]; greater than 100 µM in assay [4]; greater than 100 µM in assay [5]; greater than 100 µM in assay [6]. Also, the GI50 in assay [7] is 8.29 µM. Besides, the TGI in assay [1], in assay [2], in assay [8], in assay [4], in assay [5] and in assay [6] was greater than 100 µM in each case. Moreover, in assay [7], the TGI was greater than 100 µM.

For the origin of these results see PubChem BioAssay (NCI).
